Test results published in PubChem BioAssay AID2060483 (Molecular Pharmacology Branch, DTP, NCI, 2025).

Tested on: K24384-001-R-PDC complex spheroids, viability
Assay: Anticancer human tumor K24384-001-R-PDC patient-derived pancreatic adenocarcinoma cell line growth inhibition [GQUAD]
Details: for IC50: curve of first compound; for viability, T/C: stronger effect = lower value
Description: DNA G-quadruplex Stabilizer Agents in Combinations in Complex Spheroids
A high-throughput screen of multi-cell type tumor spheroids was designed to identify active combinations of DNA G-quadruplex stabilizer agents and targeted small molecules. Complex spheroids include a stromal component modeled by human endothelial cells (HUVEC) and fibroblasts modeled by human mesenchymal stem cells (MSCs). The concentration ranges selected for each drug and investigational agent were based upon clinically achievable concentrations if the clinical Cmax of the agent was known.
Compounds. The drugs and investigational agents: pidnarulex (CX-5461; NSC782164), APTO-253 (NSC789042), BRACO-19 (NSC847499), peposertib (NSC802822), ceralasertib (NSC780249), elimusertib (NSC800525), camonsertib (NSC841442), AZD-1390 (NSC803789), olaparib (NSC753686), talazoparib (NSC767125), ART-558 (NSC835418), sotorasib (NSC818433), MRTX-1133 (NSC836407), SN-38 (NSC673596), topotecan (NSC609699), etoposide (NSC141540), doxorubicin (NSC123127), gemcitabine (NSC613327), 5-fluorouracil (NSC19893), paclitaxel (NSC125973), vemurafenib (NSC761431), panobinostat (NSC761190), R-306465 (JNJ-16241199; NSC773264), adavosertib (NSC754352), TP-3654 (NSC805149), carboplatin (NSC241240), KSQ-4279 (NSC840948), and staurosporine (NSC755774) were obtained from the National Cancer Institute (NCI) Developmental Therapeutics Program Chemical Repository (34). The FDA-approved anticancer drug set is available from the NCI Developmental Therapeutics Program. […] The stock solutions were prepared in dimethyl sulfoxide (DMSO, Sigma-Aldrich, St. Louis, MO, cat. D2650) at 800-fold the tested concentration and stored at -70 degrees C prior to their use. All drugs and investigational agents were tested over a range starting from a high concentration at or near the clinical Cmax and decreasing in half-log increments. If the clinical Cmax for an agent had not been determined, the highest concentration tested was 10 microM.
2.3 Cell Culture. All cells were maintained in an incubator at 37 degrees C and 5% CO2 with 95% humidity. The PDC lines were cultured according to standard operating procedures established by the NCI PDMR. All PDCs were thawed and cultured in Matrigel-coated flasks prepared with a working solution of 1X Ham's F-12 nutrient mix, without supplementation (Invitrogen, cat. 11765054), 100 U/mL penicillin-streptomycin (Invitrogen, cat. 15140122), and 2.5% Matrigel (Corning Inc., cat. 354248) for the first three passages. The 857933-349-R-J2-PDC line was cultured in 6C/Colon 1B media, which includes advanced DMEM/F-12 (Thermo Fisher Scientific, cat. 12634028), 10 mM HEPES (Thermo Fisher Scientific, cat. 15630080), 1X GlutaMAX supplement (Thermo Fisher Scientific, cat. 35050061), 0.1 mg/mL primocin (InvivoGen, cat. ant-pm-2), 10% defined fetal bovine serum, heat inactivated (HyClone Laboratories Inc., cat. SH30070.03HI), 50% L-WRN conditioned media (ATCC, cat. CRL-3276), 1.25 mM N-Acetyl-L-cysteine (Sigma-Aldrich, cat. A9165), 10 mM nicotinamide (Sigma-Aldrich, cat. N0636), 1X B-27 supplement (Thermo Fisher Scientific, cat. 17504044), 1X N-2 supplement (Thermo Fisher Scientific, cat. 17502048), 10 microM Y-27632 dihydrochloride (Tocris Bioscience, cat. 1254), and 50 ng/mL human EGF recombinant protein (Thermo Fisher Scientific, cat. PHG0311). The 485176-168-R4-J1-PDC line was cultured in Panc media, which includes all 6C/Colon 1B media components plus 100 ng/mL human FGF-10 (Thermo Fisher Scientific, cat. 100-26), 500 nM SB-431542 (Selleckchem, cat. S1067), and gastrin (Tocris, cat. 3006).
[…]

[1] = second compound 0.0316 µM, first compound 0.0316 µM
[2] = second compound 0.0316 µM, first compound 0.1 µM
[3] = second compound 0.0316 µM, first compound 0.316 µM
[4] = second compound 0.0316 µM, first compound 1 µM
[5] = second compound 0.0316 µM, first compound 3.16 µM
[6] = second compound 0.0316 µM, first compound 10 µM
[7] = second compound 0.1 µM, first compound 0.0316 µM
[8] = second compound 0.1 µM, first compound 0.1 µM
[9] = second compound 0.1 µM, first compound 0.316 µM
[10] = second compound 0.1 µM, first compound 1 µM
[11] = second compound 0.1 µM, first compound 3.16 µM
[12] = second compound 0.1 µM, first compound 10 µM
[13] = second compound 0.316 µM, first compound 0.0316 µM
[14] = second compound 0.316 µM, first compound 0.1 µM
[15] = second compound 0.316 µM, first compound 0.316 µM
[16] = second compound 0.316 µM, first compound 1 µM
[17] = second compound 0.316 µM, first compound 3.16 µM
[18] = second compound 0.316 µM, first compound 10 µM
[19] = second compound 1 µM, first compound 0.0316 µM
[20] = second compound 1 µM, first compound 0.1 µM
[21] = second compound 1 µM, first compound 0.316 µM
[22] = second compound 1 µM, first compound 1 µM
[23] = second compound 1 µM, first compound 3.16 µM
[24] = second compound 1 µM, first compound 10 µM
[25] = second compound 3.16 µM, first compound 0.0316 µM
[26] = second compound 3.16 µM, first compound 0.1 µM
[27] = second compound 3.16 µM, first compound 0.316 µM
[28] = second compound 3.16 µM, first compound 1 µM
[29] = second compound 3.16 µM, first compound 3.16 µM
[30] = second compound 3.16 µM, first compound 10 µM
[31] = second compound 10 µM, first compound 0.0316 µM
[32] = second compound 10 µM, first compound 0.1 µM
[33] = second compound 10 µM, first compound 0.316 µM
[34] = second compound 10 µM, first compound 1 µM
[35] = second compound 10 µM, first compound 3.16 µM
[36] = second compound 10 µM, first compound 10 µM
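Also: spheroids exposed to compounds for seven days.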

C=CC(=O)N1CCN(c2nc(=O)n(-c3c(C)ccnc3C(C)C)c3nc(-c4c(O)cccc4F)c(F)cc23)C(C)C1 (centres undefined) + Cc1[nH]c2ccc(F)cc2c1-c1nc2c3cccnc3c3ncccc3c2[nH]1
IC50 (second compound 0.0316 µM): > 10 µM | IC50 (second compound 0.1 µM): > 10 µM | IC50 (second compound 0.316 µM): > 10 µM | IC50 (second compound 1 µM): > 10 µM | IC50 (second compound 3.16 µM): > 10 µM | IC50 (second compound 10 µM): > 10 µM | viability, T/C [1]: 111% | viability, T/C [2]: 78.9% | viability, T/C [3]: 104% | viability, T/C [4]: 101% | viability, T/C [5]: 111% | viability, T/C [6]: 88.3% | viability, T/C [7]: 96% | viability, T/C [8]: 96.8% | viability, T/C [9]: 95% | viability, T/C [10]: 117% | viability, T/C [11]: 106% | viability, T/C [12]: 77.4% | viability, T/C [13]: 110% | viability, T/C [14]: 92.8% | viability, T/C [15]: 95.2% | viability, T/C [16]: 119% | viability, T/C [17]: 101% | viability, T/C [18]: 83.3% | viability, T/C [19]: 92.8% | viability, T/C [20]: 105% | viability, T/C [21]: 99.5% | viability, T/C [22]: 103% | viability, T/C [23]: 96.2% | viability, T/C [24]: 70.1% | viability, T/C [25]: 71.7% | viability, T/C [26]: 74.8% | viability, T/C [27]: 71.2% | viability, T/C [28]: 84.4% | viability, T/C [29]: 79.2% | viability, T/C [30]: 67.1% | viability, T/C [31]: 66% | viability, T/C [32]: 63.7% | viability, T/C [33]: 65.7% | viability, T/C [34]: 72.3% | viability, T/C [35]: 80.5% | viability, T/C [36]: 60.8%

CC(C)n1c(=O)n(C)c2cnc3cc(F)c(-c4ccc(OCCCN5CCCCC5)nc4)cc3c21 + Cc1[nH]c2ccc(F)cc2c1-c1nc2c3cccnc3c3ncccc3c2[nH]1
IC50 (second compound 0.0316 µM): > 10 µM | IC50 (second compound 0.1 µM): > 10 µM | IC50 (second compound 0.316 µM): > 10 µM | IC50 (second compound 1 µM): > 10 µM | IC50 (second compound 3.16 µM): > 10 µM | IC50 (second compound 10 µM): > 10 µM | viability, T/C [1]: 108% | viability, T/C [2]: 96.1% | viability, T/C [3]: 126% | viability, T/C [4]: 110% | viability, T/C [5]: 122% | viability, T/C [6]: 87.5% | viability, T/C [7]: 92.1% | viability, T/C [8]: 129% | viability, T/C [9]: 110% | viability, T/C [10]: 116% | viability, T/C [11]: 157% | viability, T/C [12]: 91.7% | viability, T/C [13]: 87.1% | viability, T/C [14]: 100% | viability, T/C [15]: 100% | viability, T/C [16]: 96.6% | viability, T/C [17]: 125% | viability, T/C [18]: 146% | viability, T/C [19]: 104% | viability, T/C [20]: 107% | viability, T/C [21]: 101% | viability, T/C [22]: 99.1% | viability, T/C [23]: 134% | viability, T/C [24]: 107% | viability, T/C [25]: 78.6% | viability, T/C [26]: 89.2% | viability, T/C [27]: 79.9% | viability, T/C [28]: 99.4% | viability, T/C [29]: 99.1% | viability, T/C [30]: 83.3% | viability, T/C [31]: 71.9% | viability, T/C [32]: 73.4% | viability, T/C [33]: 71.1% | viability, T/C [34]: 96.3% | viability, T/C [35]: 79.4% | viability, T/C [36]: 72.1%
